One test has as its target T1, human H4 receptor (Homo sapiens, UniProt Q9H3N8).
T1 construct: expressed in transfected cells
Put plainly: [3H]Histamine binding on membranes of CHO cells stably expressing human H4 receptor.
Conditions: not given
In a few lines: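 Membranes from sub-confluent CHO-hH4 cells, 20 μg protein per well, were incubated in 50 mM Tris/HCl, 0.5 mM EDTA, pH 7.4. Nonspecific binding was defined with 10 μM JNJ 7777120. Bound radioactivity was collected on PEI-soaked GF/B filters and counted by liquid scintillation.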
T1 sequence (Q9H3N8 whole entry): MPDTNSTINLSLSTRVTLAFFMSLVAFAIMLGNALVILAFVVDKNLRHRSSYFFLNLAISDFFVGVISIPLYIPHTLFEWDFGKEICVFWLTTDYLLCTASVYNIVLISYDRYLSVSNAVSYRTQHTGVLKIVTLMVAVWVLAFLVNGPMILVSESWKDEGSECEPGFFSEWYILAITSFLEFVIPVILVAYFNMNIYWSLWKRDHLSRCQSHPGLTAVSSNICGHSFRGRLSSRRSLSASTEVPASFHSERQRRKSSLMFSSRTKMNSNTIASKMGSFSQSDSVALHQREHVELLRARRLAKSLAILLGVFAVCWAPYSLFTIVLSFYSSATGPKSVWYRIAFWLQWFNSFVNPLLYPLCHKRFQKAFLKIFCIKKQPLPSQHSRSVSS
The compound `CN1CCC(OC(c2cccc(OCCN3CCN(C(=O)OC(C)(C)C)CC3)c2)c2nc3ccccc3s2)CC1` (stereo not drawn) [Example 328, 4-(2-{3-[benzothiazol-2-yl(1-methylpiperidin-4-yloxy)methyl]phenoxy}ethyl)piperazine-1-carboxylic acid tert-butyl ester] had a Ki or IC50 activity class of less than 30 nM.

Compound `CN1CCC(OC(c2cccc(SC(C)(C)CCO)c2)c2nc3ccccc3s2)CC1` (stereo not drawn) [Example 242, 3-{3-[benzothiazol-2-yl(1-methylpiperidin-4-yloxy)methyl]phenylsulfanyl}-3-methyl-butan-1-ol] displayed a Ki or IC50 activity class of less than 1000 nM.

As for `CN1CCC(OC(c2cccc(OCCCN)c2)c2nc3ccccc3s2)CC1` (stereo not drawn) [Example 311, 3-{3-[benzothiazol-2-yl(1-methylpiperidin-4-yloxy)methyl]phenoxy}propylamine], the Ki or IC50 activity class was less than 300 nM.

Consider `CN1CCC(OC(c2cccc(SCC=CCN)c2)c2nc3ccccc3[nH]2)CC1` (stereo not drawn) [Example 473], for which the Ki or IC50 activity class is less than 30 nM.

Take `CCN1CCC(OC(c2cccc(OCCN)c2)c2nc3ccccc3s2)CC1` (stereo not drawn) [Example 290, 2-{3-[benzothiazol-2-yl(1-ethyl-piperidin-4-yloxy)methyl]phenoxy}ethylamine]: the Ki or IC50 activity class was less than 300 nM.

In turn, `CN1CCC(OC(c2cccc(C#CCCCCNC(=N)N)c2)c2nc3ccccc3s2)CC1` (stereo not drawn) [Example 342, N-(6-{3-[benzothiazol-2-yl(1-methylpiperidin-4-yloxy)methyl]phenyl}hex-5-ynyl)guanidine] came in with a Ki or IC50 activity class of less than 300 nM.

In turn, `CN1CCC(OC(c2cccc(C=CCCCO)c2)c2nc3ccccc3s2)CC1` (stereo not drawn) [Example 390, 5-{3-[(benzothiazol-2-yl)(1-methylpiperidin-4-yloxy)methyl]phenyl}pent-4-en-1-ol] yielded a Ki or IC50 activity class of less than 30 nM.

In the case of `CN1CCC(OC(c2cccc(OC3CNC3)c2)c2nc3ccccc3s2)CC1` (stereo not drawn) [Example 402, 2-[[3-(azetidin-3-yloxy)phenyl](1-methylpiperidin-4-yloxy)methyl]benzothiazole], the Ki or IC50 activity class is less than 300 nM.

On to `CCSc1ccc(F)c(C(OC2CCN(C)CC2)c2nc3ccccc3[nH]2)c1F` (stereo not drawn) [Example 520], for which the Ki or IC50 activity class was less than 300 nM.

The compound `CN1CCC(OC(c2cccc(C=CC(=O)OC(C)(C)C)c2)c2nc3ccccc3s2)CC1` (stereo not drawn) [Example 205, 3-{3-[benzothiazol-2-yl(1-methylpiperidin-4-yloxy)methyl]phenyl}acrylic acid tert-butyl ester] had a Ki or IC50 activity class of less than 1000 nM.

In turn, `CN1CCC(OC(c2cccc(-c3ccc(F)cc3)c2)c2nc3ccccc3[nH]2)CC1` (stereo not drawn) [Example 115, 2-[(4′-fluorobiphenyl-3-yl)(1-methylpiperidin-4-yloxy)methyl]-1H-benzimidazole] gave a Ki or IC50 activity class of less than 300 nM.

Compound `CC(C)Oc1cccc(C(OC2CCN(C)CC2)c2nc3ccccc3s2)c1` (stereo not drawn) [Example 55, 2-[(3-isopropoxyphenyl)(1-methylpiperidin-4-yloxy)methyl]benzothiazole] registered a Ki or IC50 activity class of less than 30 nM.

`CC1=C(O)C(=NCCCCC#Cc2ccc(F)c(C(OC3CCN(C)CC3)c3nc4ccccc4[nH]3)c2)CC1` (stereo not drawn) [Example 563, 5-(6-{3-[(1H-benzimidazol-2-yl)(1-methylpiperidin-4-yloxy)methyl]-4-fluorophenyl}hex-5-ynylimino)-2-methylcyclopent-1-enol] returned a Ki or IC50 activity class of less than 300 nM.

Compound `CN1CCC(OC(c2cccc(SCCCCO)c2)c2nc3ccccc3[nH]2)CC1` (stereo not drawn) [Example 248, 4-{3-[(1H-benzimidazol-2-yl)(1-methylpiperidin-4-yloxy)methyl]phenylsulfanyl}butan-1-ol] displayed a Ki or IC50 activity class of less than 300 nM.

`CN1CCC(OC(c2cccc(C#CCNC(=N)N)c2)c2nc3ccccc3[nH]2)CC1` (stereo not drawn) [Example 418, N-(3-{3-[(1H-benzimidazol-2-yl)(1-methylpiperidin-4-yloxy)methyl]phenyl}prop-2-ynyl)guanidine] yielded a Ki or IC50 activity class of less than 30 nM.

For `CN1CCC(NC(c2cccc(SCc3ccccc3)c2)c2nc3ccccc3[nH]2)CC1` (stereo not drawn) [Example 104, [(1H-benzimidazol-2-yl)(3-benzylsulfanylphenyl)methyl](1-methylpiperidin-4-yl)amine], the Ki or IC50 activity class is less than 30 nM.

The compound `COC(=O)CSc1cccc(C(OC2CCN(C)CC2)c2nc3ccccc3[nH]2)c1` (stereo not drawn) [Example 154, {3-[(1H-benzimidazol-2-yl)(1-methylpiperidin-4-yloxy)methyl]phenylsulfanyl}acetic acid methyl ester] registered a Ki or IC50 activity class of less than 300 nM.

`CN1CCC(OC(c2cccc(CCCCCNC(=N)N)c2)c2nc3ccccc3[nH]2)CC1` (stereo not drawn) [Example 397, N-(5-{3-[(1H-benzimidazol-2-yl)(1-methylpiperidin-4-yloxy)methyl]phenyl}pentyl)guanidine] displayed a Ki or IC50 activity class of less than 300 nM.

Turning to `CN1CCC(OC(c2cccc(OC3CCNC3)c2)c2nc3ccccc3s2)CC1` (stereo not drawn) [Example 383, 2-{(1-methylpiperidin-4-yloxy)[3-(pyrrolidin-3-yloxy)phenyl]methyl}benzothiazole], the Ki or IC50 activity class was less than 300 nM.

For `CSc1cccc(-c2cccc(C(OC3CCN(C)CC3)c3nc4ccccc4s3)c2)c1` (stereo not drawn) [Example 128, 2-[(1-methylpiperidin-4-yloxy)(3′-methylsulfanylbiphenyl-3-yl)methyl]benzothiazole], the Ki or IC50 activity class is less than 300 nM.

`CN1CCC(OC(c2cccc(OCCCCN3CCOCC3)c2)c2nc3ccccc3[nH]2)CC1` (stereo not drawn) [Example 332, 2-{(1-methylpiperidin-4-yloxy)[3-(4-morpholin-4-yl-butoxy)phenyl]methyl}-1H-benzimidazole] displayed a Ki or IC50 activity class of less than 1000 nM.

In turn, `CN1CCC(OC(c2cccc(-c3cccc(CO)c3)c2)c2nc3ccccc3[nH]2)CC1` (stereo not drawn) [Example 86, {3′-[(1H-benzimidazol-2-yl)(1-methylpiperidin-4-yloxy)methyl]biphenyl-3-yl}methanol] showed a Ki or IC50 activity class of less than 300 nM.

For the compound `CN1CCC(OC(c2nc3ccccc3s2)c2ccc(F)cc2F)CC1` (stereo not drawn) [Example 12, 2-[(2,4-difluorophenyl)(1-methyl-piperidin-4-yloxy)methyl]-benzothiazole], the Ki or IC50 activity class is less than 300 nM.

For `CN1CCC(OC(c2cccc(OCCCCCNCCCCN)c2)c2nc3ccccc3[nH]2)CC1` (stereo not drawn) [Example 419, N1-(5-{3-[(1H-benzimidazol-2-yl)(1-methylpiperidin-4-yloxy)methyl]phenoxy}pentyl)butane-1,4-diamine], the Ki or IC50 activity class was less than 1000 nM.

`CN1CCC(OC(c2cccc(CCCCCCNC(=N)N)c2)c2nc3ccccc3[nH]2)CC1` (stereo not drawn) [Example 355, N-(6-{3-[(1H-benzimidazol-2-yl)(1-methylpiperidin-4-yloxy)methyl]phenyl}hexyl)guanidine] returned a Ki or IC50 activity class of less than 300 nM.

Take `CN1CCC(OC(c2cccc(OCCCN3CCN(C(=O)OC(C)(C)C)CC3)c2)c2nc3ccccc3[nH]2)CC1` (stereo not drawn) [Example 360, 4-(3-{3-[(1H-benzimidazol-2-yl)(1-methylpiperidin-4-yloxy)methyl]phenoxy}propyl)piperazine-1-carboxylic acid tert-butyl ester]: the Ki or IC50 activity class is less than 1000 nM.

As to `CN1CCC(OC(c2cccc(C#CCCN)c2)c2nc3ccccc3[nH]2)CC1` (stereo not drawn) [Example 286, 4-{3-[(1H-benzimidazol-2-yl)(1-methylpiperidin-4-yloxy)methyl]phenyl}but-3-ynylamine], the Ki or IC50 activity class is less than 300 nM.

In turn, `CN1CCC(OC(c2ccc(N)cc2)c2nc3ccccc3[nH]2)CC1` (stereo not drawn) [Example 455, 4-[(1H-benzimidazol-2-yl)(1-methylpiperidin-4-yloxy)methyl]aniline] displayed a Ki or IC50 activity class of less than 30 nM.

Consider `CN1CCC(OC(c2cccc(SCCCCCO)c2)c2nc3ccccc3[nH]2)CC1` (stereo not drawn) [Example 445, 5-{3-[(1H-benzimidazol-2-yl)(1-methylpiperidin-4-yloxy)methyl]phenylsulfanyl}pentan-1-ol], for which the Ki or IC50 activity class was less than 300 nM.

Compound `COC(=O)CC1(CSc2cccc(C(OC3CCN(C)CC3)c3nc4ccccc4s3)c2)CC1` (stereo not drawn) [Example 239, (1-{3-[benzothiazol-2-yl(1-methylpiperidin-4-yloxy)methyl]phenylsulfanylmethyl}-cyclopropyl)acetic acid methyl ester] displayed a Ki or IC50 activity class of less than 1000 nM.

As for `CN1CCC(OC(c2cccc(C#CCN)c2)c2nc3ccccc3s2)CC1` (stereo not drawn) [Example 296, 3-{3-[benzothiazol-2-yl(1-methylpiperidin-4-yloxy)methyl]phenyl}prop-2-ynylamine], the Ki or IC50 activity class is less than 300 nM.

For the compound `CN1CCC(OC(c2cccc(C#CC3CN(C(=N)N)C3)c2)c2nc3ccccc3[nH]2)CC1` (stereo not drawn) [Example 426, 3-{3-[(1H-benzimidazol-2-yl)(1-methylpiperidin-4-yloxy)methyl]phenylethynyl}azetidine-1-carboxamidine], the Ki or IC50 activity class is less than 300 nM.

In turn, `Cc1cc(C(OC2CCN(C)CC2)c2nc3ccccc3s2)ccc1F` (stereo not drawn) [Example 34, 2-[(4-fluoro-3-methylphenyl)(1-methylpiperidin-4-yloxy)methyl]benzothiazole] registered a Ki or IC50 activity class of less than 300 nM.

In the case of `CN1CCC(OC(c2cccc(-c3ccccc3F)c2)c2nc3ccccc3s2)CC1` (stereo not drawn) [Example 137, 2-[(2′-fluorobiphenyl-3-yl)(1-methylpiperidin-4-yloxy)methyl]benzothiazole], the Ki or IC50 activity class is less than 300 nM.

Take `CN1CCC(OC(c2cccc(SCCCCO)c2)c2nc3ccccc3s2)CC1` (stereo not drawn) [Example 256, 4-{3-[benzothiazol-2-yl(1-methylpiperidin-4-yloxy)methyl]phenylsulfanyl}butan-1-ol]: the Ki or IC50 activity class is less than 30 nM.

The compound `CN1CCC(OC(c2cccc(OC3CCNCC3)c2)c2nc3ccccc3s2)CC1` (stereo not drawn) [Example 415, 2-{(1-methylpiperidin-4-yloxy)[3-(piperidin-4-yloxy)phenyl]methyl}benzothiazole] yielded a Ki or IC50 activity class of less than 300 nM.

`Cc1cc(F)c(C(OC2CCN(C)CC2)c2nc3ccccc3s2)c(F)c1` (stereo not drawn) [Example 531] showed a Ki or IC50 activity class of less than 30 nM.

As for `CN1CCC(OC(c2nc3ccccc3[nH]2)c2cc(OCCF)ccc2F)CC1` (stereo not drawn) [Example 489], the Ki or IC50 activity class was less than 30 nM.

Still in this test, the particulars now being: read-out: Activity (Ki or IC50).
As usually defined, the Ki is the dissociation constant of the complex between target and ligand, obtained from inhibition or displacement. On to `CN1CCC(OC(c2cccc(SCCNC(=N)NC(=O)C(C)(C)C)c2)c2nc3ccccc3[nH]2)CC1` (stereo not drawn) [Example 446], for which the Ki was less than 300 nM.

(Values after patent publication US8802664B2 (Bioproject, priority 2010, dated 2014).)
